Reference: patent US20100240682A1, “PHOPHYLACTIC OR THERAPEUTIC AGENT FOR INFLAMATORY DISEASE COMPRISING THYMIDINE PHOSPHORYLASE INHIBITOR AS ACTIVE INGREDIENT” (TAIHO PHARMACEUTICAL CO., LTD., priority 2007, published 2010)

Key:
[1] = tested on: IL-6 production in human monocytes cell line U937; assay: IL-6 production by PMA/thymidine-stimulated U937 cells; format: cell-based; conditions: U937 after 10 ng/mL PMA and 10 μmol/L thymidine; 48 h after drug addition; vs control group
Method: Human monocytes cell line U937 were cultured using a 10% FBS RPMI 1640 medium (SIGMA-ALDRICH) at 37° C. under 5% CO2. Using a 24-well plate, U937 cells (1×10^5) were cultured for 24 hours in a medium containing 10 ng/mL phorbol-12-myristate-13-acetate (inflammatory substance, hereinafter abbreviated to as PMA) and 10 μmol/L thymidine in order for induction of inflammatory reaction. Twenty-four hours later, the medium was changed to fresh medium. To the drug administration group, TUPI or TPI was added. Forty-eight hours after the addition, the IL-6 level of each culture supernatant was determined by means of BioPlex (Bio-Rad Laboratories, Inc.).

[2] = tested on: rats having hydrochloric-acid-induced cystitis; assay: Hydrochloric-acid-induced cystitis model rat, bladder functions by cystometry; format: in vivo; conditions: TPI 5, 50 or 100 mg/kg orally once a day for seven days; vs control group
Method: To rats having hydrochloric-acid-induced cystitis serving as a cystitis model, 5-chloro-6-(2-iminopyrrolidin-1-yl)methyl-2,4(1H,3H)-pyrimidinedione hydrochloride (hereinafter abbreviated as “TPI”) (5, 50, or 100 mg/kg) was orally administered continuously for seven days, and the effect of TPI on bladder functions was evaluated. Specifically, 10-week-old SD rats were divided into groups (n=6) on the basis of body weight. To each of the rats of the control group and TPI administration groups, 0.4N HCl (0.2 mL) was intravesically administered once to the bladder under pentobarbital anesthesia (50 mg/kg, i.p.), to thereby induce a cystitis model. To a Sham group, saline (0.2 mL) was intravesically administered. From the day following the induction of cystitis model, distilled water for injection (5 mL/kg) was administered to the Sham and control groups, while distilled water for injection (5 mL/kg) containing TPI (5, 50, or 100 mg/kg) was administered to the TPI administration groups. In each case, the liquid was administered by forced oral administration once a day continuously for seven days. On the day following the final administration day, bladder functions (urination intervals and single urination output) of the rats of each group were evaluated through cystometry under anesthesia in accordance with a method described in BJU Int. 2007 October; 100(4): 935-9.

[3] = tested on: concanavalin-A-induced hepatitis model mice; assay: Concanavalin-A-induced hepatitis model, serum AST and ALT; format: in vivo, mouse; conditions: TPI 100 mg/kg oral, 30 min before concanavalin A i.v., 24 h after
Method: TPI (100 mg/kg) was orally single-administered to […] in which hepatitis had been induced by concanavalin A (i.e., a hepatitis model), and the inhibitory effect of TPI on hepatitis was evaluated. Specifically, 6-week-old female C57BL/6NCrlCrlj mice (Charles River Laboratories Japan Inc.) were employed. To the TPI administration group, TPI (100 mg/kg) was orally administered, and after 30 minutes 2 mg/mL concanavalin A (150 μL/animal) was intravenously administered through the tail vein. To the control group, only a vehicle was orally administered instead of TPI. […] The serum ALT level (IU/L) and AST level (IU/L) were determined as index for liver disorders.

[4] = tested on: collagen arthritis mice; assay: Collagen arthritis model mouse, arthritis score; format: in vivo; conditions: 500 mg/kg orally once a day; 11 to 14 days after second immunization
Method: TPI (250 or 500 mg/kg) was orally administered to collagen arthritis mice (i.e., rheumatic model) continuously for 14 days, and the effect of TPI on edema of the limbs of each mouse was evaluated. Arthritis was induced in […] mice by type II collagen induction, and the mice were employed as a rheumatoid arthritis model. Specifically, type II collagen derived from bovine joint (K42, product of Collagen Gijyutsu Kensyukai) (200 μg) was suspended in Freund's complete adjuvant (DIFCO) (100 μL), and on day 1, the suspension was intradermally administered to the back of 8-week-old mice (DBA/1JN mice, Charles River Laboratories Japan Inc.). On day 21, type II collagen derived from bovine joint (K42) (200 μg) suspended in Freund's complete adjuvant (100 μL) was intradermally administered to the tail portion of each mice, to thereby induce an arthritis model. To the TPI administration groups, TPI (250 or 500 mg/kg/day) was orally administered continuously once a day during a period from day 21 to day 40. To the control, a solvent (0.5% aqueous HPMC) was administered instead of TPI according to the same administration schedule as employed in the TPI administration groups. […] The arthritis condition was evaluated on day 42; i.e., the day following the final administration day. […]

[5] = tested on: rats having hydrochloric-acid-induced cystitis; assay: Hydrochloric-acid-induced rat interstitial cystitis model, histological changes of the bladder (HE staining); format: in vivo
Method: To rats having hydrochloric-acid-induced cystitis serving as an interstitial cystitis model, TPI (50 or 500 mg/kg) was orally administered continuously for seven days, and the effect of TPI on pathological histological improvement of the bladder tissue was evaluated. Specifically, 10-week-old SD rats were divided into groups (n=6) on the basis of body weight. To each of the rats of a control group and TPI administration groups, 0.4N HCl (0.2 mL) was intravesically administered once to the bladder under pentobarbital anesthesia (50 mg/kg, i.p.), to thereby induce a cystitis model. To a Sham group, saline (0.2 mL) was intravesically administered. From the day following the induction of cystitis model, distilled water for injection (5 mL/kg) was administered to the Sham and control groups, while distilled water for injection (5 mL/kg) containing TPI (50 or 500 mg/kg) was administered to the TPI administration groups. In each case, the liquid was orally administered continuously once a day for seven days. On the day following the final administration day, the bladder was removed from each of the rats under ether anesthesia and washed with saline. Subsequently, the washed bladder was fixed with 20% buffered formalin and 10% buffered formalin, followed by HE staining. Histological changes of the bladder were observed. […]

[6] = tested on: rats in which ulcer had been induced by hydrochloric acid; assay: Hydrochloric-acid-induced acute gastritis model rat, gastric mucosal damage (lesion length); format: in vivo; conditions: control 120.4±8.5 mm
Method: TPI (100 or 200 mg/kg) was orally single-administered to rats in which ulcer had been induced by hydrochloric acid (i.e., an acute gastritis model), and the preventive effect of TPI on mucosal damage was evaluated. Specifically, 7-week-old female SD rats (Charles River Laboratories Japan Inc.) were fasted for about 18 hours. To the TPI administration groups, TPI (100 or 200 mg/kg) was orally administered, and after 30 minutes 0.6N HCl (5 mL/kg) was orally administered. To the control group, only 0.6N HCl (5 mL/kg) was orally administered. One hour after administration of hydrochloric acid, rats were euthanized through, and the stomach was removed from each rat. The tissue thereof was fixed with 1% formaline buffer, and the stomach was cut through the greater curvature. The longer diameter (mm) of a lesion was measured by means of an electronic caliper, and the total of the diameters was employed as an index for evaluating gastric mucosal damage.

Nc1[nH]c(=O)[nH]c(=O)c1Cl [TUPI, 5-chloro-6-aminouracil, reference compound]
IL-6 level of culture supernatant [1]: more significant suppression

Cl.N=C1CCCN1Cc1[nH]c(=O)[nH]c(=O)c1Cl [TPI, 5-chloro-6-(2-iminopyrrolidin-1-yl)methyl-2,4(1H,3H)-pyrimidinedione hydrochloride]
bladder functions (urination interval, single urination output, effective vesical capacity, residual urine) [2]: improved in response to the administration amount
serum AST level ([3]; control 4,506±864): 1,540±477 IU/L
serum ALT level ([3]; control 6,130±800): 2,538±755 IU/L
arthritis scores [4]: significant suppression
Entire bladder: Thickening/proliferation of transitional epithelium, number of samples ([5]; TAS-111 (50), grade +): 1
Lamina propria: Edema, number of samples ([5]; TAS-111 (50), grade +): 0
Lamina propria: Infiltration of mast cells/eosinocytes, number of samples ([5]; TAS-111 (50), grade +): 1
Tunica muscularis: Edema, number of samples ([5]; TAS-111 (50), grade +): 2
Tunica muscularis: Infiltration of mast cells/eosinocytes, number of samples ([5]; TAS-111 (50), grade +): 2
Entire bladder: Thickening/proliferation of transitional epithelium, number of samples ([5]; TAS-111 (50), grade ++): 2
Lamina propria: Edema, number of samples ([5]; TAS-111 (50), grade ++): 2
Lamina propria: Infiltration of mast cells/eosinocytes, number of samples ([5]; TAS-111 (50), grade ++): 2
Tunica muscularis: Edema, number of samples ([5]; TAS-111 (50), grade ++): 0
Tunica muscularis: Infiltration of mast cells/eosinocytes, number of samples ([5]; TAS-111 (50), grade ++): 0
Entire bladder: Thickening/proliferation of transitional epithelium, number of samples ([5]; TAS-111 (50), grade +++): 0
Lamina propria: Edema, number of samples ([5]; TAS-111 (50), grade +++): 0
Lamina propria: Infiltration of mast cells/eosinocytes, number of samples ([5]; TAS-111 (50), grade +++): 0
Tunica muscularis: Edema, number of samples ([5]; TAS-111 (50), grade +++): 0
Tunica muscularis: Infiltration of mast cells/eosinocytes, number of samples ([5]; TAS-111 (50), grade +++): 0
Entire bladder: Thickening/proliferation of transitional epithelium, number of samples ([5]; TAS-111 (500), grade +): 1
Lamina propria: Edema, number of samples ([5]; TAS-111 (500), grade +): 0
Lamina propria: Infiltration of mast cells/eosinocytes, number of samples ([5]; TAS-111 (500), grade +): 2
Tunica muscularis: Edema, number of samples ([5]; TAS-111 (500), grade +): 0
Tunica muscularis: Infiltration of mast cells/eosinocytes, number of samples ([5]; TAS-111 (500), grade +): 0
Entire bladder: Thickening/proliferation of transitional epithelium, number of samples ([5]; TAS-111 (500), grade ++): 0
Lamina propria: Edema, number of samples ([5]; TAS-111 (500), grade ++): 1
Lamina propria: Infiltration of mast cells/eosinocytes, number of samples ([5]; TAS-111 (500), grade ++): 0
Tunica muscularis: Edema, number of samples ([5]; TAS-111 (500), grade ++): 0
Tunica muscularis: Infiltration of mast cells/eosinocytes, number of samples ([5]; TAS-111 (500), grade ++): 0
Entire bladder: Thickening/proliferation of transitional epithelium, number of samples ([5]; TAS-111 (500), grade +++): 0
Lamina propria: Edema, number of samples ([5]; TAS-111 (500), grade +++): 0
Lamina propria: Infiltration of mast cells/eosinocytes, number of samples ([5]; TAS-111 (500), grade +++): 0
Tunica muscularis: Edema, number of samples ([5]; TAS-111 (500), grade +++): 0
Tunica muscularis: Infiltration of mast cells/eosinocytes, number of samples ([5]; TAS-111 (500), grade +++): 0
gastric mucosal damage (total of longer diameters of lesions) ([6]; TPI 100 mg/kg oral single dose 30 min before 0.6N HCl, significantly reduced): 63.0±14.3 mm
gastric mucosal damage (total of longer diameters of lesions) ([6]; TPI 200 mg/kg oral single dose 30 min before 0.6N HCl): 76.1±18.3 mm
IL-6 level of culture supernatant [1]: more significant suppression
